Paper PMC10354055, “An optimized Nurr1 agonist provides disease-modifying effects in Parkinson’s disease models” (Nature Communications, 2023)
Where “and” joins values, the source holds several entries; their conditions need not be identical. Equal values may be shown once.

How the values were obtained:
[1] = system: MPTP-induced male mice; experiment: Pole test, MPTP-induced PD model mice; assay type: in vivo, mouse; details: Figure 4c; MPTP-induced mice; individual animal values
Method: (§1) MPTP (Sigma-Aldrich) was intraperitoneally (i.p.) injected (30 mg/kg) for 5 days (Day 1-5). […] To test dyskinetic involuntary behavior, an L-DOPA injected group was included, which received 50 mg/kg of L-DOPA and 15 mg/kg of benserazide (Sigma-Aldrich) (i.p.) for 16 days (Day 1–16). All compounds were administered 6 h post-MPTP injection to avoid any effect of compounds on the MPTP metabolism in the brain. Motor and non-motor related behavior tests were performed on the following days as described in Fig. 4a in an assessor- and observer-blinded fashion. Pre-training and baseline setup for motor-related behaviors were performed 3 days prior to the injections. Mice were sacrificed and subjected to immunohistochemistry. Mice were housed at the Animal Care Facilities of McLean Hospital under a 12-h light/12-h dark cycle, ambient temperature and humidity. Animals were handled in accordance with McLean Hospital’s Institutional Animal Care and Use Committee (Protocol #: 2015N000002) and followed National Institutes of Health guidelines.
Mice were trained to descend a vertical metal rod wrapped with rough tape (80 cm high, 12 mm diameter) once per day for 2 days, and then the baseline was measured before the pole test (3 days before the MPTP injection or the first pole test at week 2). Mice were placed head-upward on the pole and total descent time was recorded.

[2] = system: N27-A cells; experiment: Mitochondrial activity assay, Seahorse XFp, N27-A cells; assay type: cell-based, rat; design: Seahorse time trace (OCR): unit not given here; details: for OCR changes after FCCP injection: MPP+ co-treatment, individual replicates (Supplementary Figure S1o); for Seahorse time trace (OCR) / ATP turnover: replicates; for ATP turnover: Fig. S1n, with MPP+
Method: Mitochondrial activity was measured using the Seahorse XFp analyzer (Agilent Technologies) according to the manufacturer’s instruction. Briefly, cells were plated onto wells of a XFp cell culture miniplate and incubated in a 37 °C incubator overnight. The assay was performed after cells were equilibrated for 1 h in XF assay medium supplemented with 10 mM D-glucose, 5 mM sodium pyruvate, and 2 mM glutamax in a non-CO2 incubator. Mitochondrial activity was monitored through sequential injections of 1 μM oligomycin, 2 μM carbonyl cyanide-4 (trifluoromethoxy) phenylhydrazone (FCCP) and 0.5 μM rotenone/antimycin A to calculate basal respiration (= baseline oxygen consumption rate (OCR)−rotenone/antimycin A OCR), maximal respiration (= FCCP OCR−rotenone/antimycin A OCR), ATP turnover (= baseline OCR−oligomycin OCR), and OCR changes after FCCP injection (= FCCP OCR−oligomycin OCR). Each plotted value was normalized to total protein quantified using a Bradford protein assay (Bio-Rad) and analyzed using the Seahorse WAVE Desktop software (Agilent Technologies).

[3] = target: T1, Nurr1-LBD (Mus musculus, UniProt Q06219); experiment: Luciferase reporter assay, Nurr1-LBD, SK-N-BE(2)C cells; assay type: cell-based
T1 construct: transfected with pCMV-fNurr1, pGAL-Nurr1(LBD), pGAL-Nor1(LBD) or pGAL-Nur77(LBD) and reporter construct; expressed in transfected cells; host or cells: SK-N-BE(2)C (human neuroblastoma), N27-A (rat dopaminergic), MN9D (murine dopaminergic)
Source text: Nurr1 transactivity was normalized to β-galactosidase activity.

[4] = system: MPTP-induced male mice; experiment: IHC of Iba-1+ microglia in STR and SNpc, MPTP-induced mice; assay type: in vivo, mouse; details: MPTP-induced mice, individual animal values
Method: as §1
Images were acquired using a KEYENCE microscope and quantified as the number or optical density of immunoreactive cells using ImageJ software.
The numbers of TH^+ DA neurons, NeuN^+ neurons, pS129 αSyn^+ cells in the SN and Iba-1^+ microglia in the SN and striatum were stereologically counted in six coronal sections (30 µm thickness) taken every 6th section (180 µm intervals) for each brain. The boundaries of the SN and striatum were delimited at low magnification (4X) to estimate each total area. Immunoreactive cells were counted with images taken at high magnification (×40) by a single blinded investigator. The group mean of the total number of immunoreactive cells from each brain was transformed as percentage of the number in the control group (%). For AAV-αSyn-induced mice, the group mean of the total number of cells in the ipsilateral side was transformed as a percentage of that observed in the contralateral side.

[5] = system: N27-A cells; experiment: Lysosomal pH detection, LysoSensor, N27-A cells; assay type: cell-based, rat
Method: Lysosomal pH was detected as previously described. Briefly, after incubation in EBSS containing BafA1 (10 nM), CQ (20 µM), or 4A7C-301 (1 µM) for 6 h, HeLa and N27-A cells were treated with LysoSensor™ Yellow/Blue DND-160 (5 µM; Life Technology) for 45 min, followed by 2 washes in HEPES buffer (Gibco). Fluorescence images at excitation/emission wavelengths of 360/460 nm and 470/525 nm were taken immediately using a 400 nm dichroic mirror (KEYENCE). The ratio of fluorescence intensities (F360/470) were measured and calculated manually using ImageJ for each cell. The average pH from measuring 5 cells from each of three wells for each treatment group in both HeLa and N27-A cells was calculated by fitting the F360/470 values to a plotted pH calibration curve with KCl/NaCl buffered from pH 3.5 to 7.0 using GraphPad Prism (Version 8.0.2).

T1 sequence (Q06219 360-595 limits assumed): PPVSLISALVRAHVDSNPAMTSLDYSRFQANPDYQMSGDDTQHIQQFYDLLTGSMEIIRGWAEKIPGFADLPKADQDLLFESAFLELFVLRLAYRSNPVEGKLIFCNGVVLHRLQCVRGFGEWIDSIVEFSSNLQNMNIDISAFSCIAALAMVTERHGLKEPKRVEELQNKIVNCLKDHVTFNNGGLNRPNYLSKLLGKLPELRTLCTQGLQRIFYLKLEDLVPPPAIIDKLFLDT

## CCN(CC)CCCC(C)Nc1ccnc2cc(Cl)ccc12 (centres unmarked) [CQ, chloroquine]
[1]
  Time to traverse: 6.3 s and 5.45 s and 6.58 s and 7.09 s and 8.95 s and 7.99 s and 7.69 s and 9.73 s and 9.95 s
[2]; CQ 100 µM, 4A7C-301 1 µM
  OXPHOS capacity reduced by MPP+ (in words): efficiently restored
[2]; Control N27-A cells
  OCR changes after FCCP injection: 8.55 pmol/min/µg protein and 7.31 pmol/min/µg protein and 2.32 pmol/min/µg protein and 23.52 pmol/min/µg protein
[2]; Fig. S1j/k, Control + MPP+, time 2 min
  Seahorse time trace (OCR): 3.66 and 2.51 and 27.76
[2]; Fig. S1j/k, Control + MPP+, time 8 min
  Seahorse time trace (OCR): 3.46 and 2.01 and 20.11
[2]; Fig. S1j/k, Control + MPP+, time 15 min
  Seahorse time trace (OCR): 2.32 and 1.98 and 22.16 and 9.29
[2]; Fig. S1j/k, Control + MPP+, time 21 min
  Seahorse time trace (OCR): 0.27 and 19.75 and 5.17
[2]; Fig. S1j/k, Control + MPP+, time 28 min
  Seahorse time trace (OCR): 0.58 and 1.26 and 17.08 and 5.33
[2]; Fig. S1j/k, Control + MPP+, time 34 min
  Seahorse time trace (OCR): 0.71 and 18.32 and 7.16
[2]; Fig. S1j/k, Control + MPP+, time 41 min
  Seahorse time trace (OCR): 7.58 and 3.41 and 40.6 and 13.72
[2]; Fig. S1j/k, Control + MPP+, time 47 min
  Seahorse time trace (OCR): 6.82 and 3.28 and 39.31
[2]; Fig. S1j/k, Control + MPP+, time 54 min
  Seahorse time trace (OCR): 6.13 and 3.21 and 37.92 and 10.02
[2]; Fig. S1j/k, Control + MPP+, time 61 min
  Seahorse time trace (OCR): 0.03 and 1.24 and 16.5 and 4.04
[2]; Fig. S1j/k, Control + MPP+, time 67 min
  Seahorse time trace (OCR): 0.55 and 1.35 and 12.69 and 5.31
[2]; Fig. S1j/k, Control + MPP+, time 74 min
  Seahorse time trace (OCR): 1.39 and 17 and 5.99
[2]; Fig. S1j, Nurr1 OE + MPP+, time 2 min
  Seahorse time trace (OCR): 26.25 and 15.29
[2]; Fig. S1j, Nurr1 OE + MPP+, time 8 min
  Seahorse time trace (OCR): 18.52 and 15.98
[2]; Fig. S1j, Nurr1 OE + MPP+, time 15 min
  Seahorse time trace (OCR): 20.57 and 30.55 and 13.93
[2]; Fig. S1j, Nurr1 OE + MPP+, time 21 min
  Seahorse time trace (OCR): 5.95 and 6.99 and 4.75 and 6.7
[2]; Fig. S1j, Nurr1 OE + MPP+, time 28 min
  Seahorse time trace (OCR): 5.18 and 6.25 and 5.44 and 7.19
[2]; Fig. S1j, Nurr1 OE + MPP+, time 34 min
  Seahorse time trace (OCR): 4.78 and 5.8 and 5.34 and 7.96
[2]; Fig. S1j, Nurr1 OE + MPP+, time 41 min
  Seahorse time trace (OCR): 28.78 and 44.27 and 30.42
[2]; Fig. S1j, Nurr1 OE + MPP+, time 47 min
  Seahorse time trace (OCR): 28.4 and 36.09 and 14.17
[2]; Fig. S1j, Nurr1 OE + MPP+, time 54 min
  Seahorse time trace (OCR): 26.28 and 35.06 and 18.57 and 28.22
[2]; Fig. S1j, Nurr1 OE + MPP+, time 61 min
  Seahorse time trace (OCR): 4.76 and 5.21 and 0.65 and 4.3
[2]; Fig. S1j, Nurr1 OE + MPP+, time 67 min
  Seahorse time trace (OCR): 4.21 and 5.44 and 0.96 and 4.79
[2]; Fig. S1j, Nurr1 OE + MPP+, time 74 min
  Seahorse time trace (OCR): 4.26 and 6.26 and 5.01
[2]; Fig. S1k, Nurr1 KD + MPP+, time 2 min
  Seahorse time trace (OCR): 19.09 and 7.42 and 5.75 and 10.38
[2]; Fig. S1k, Nurr1 KD + MPP+, time 8 min
  Seahorse time trace (OCR): 18.47 and 7.53 and 4.86 and 8.38
[2]; Fig. S1k, Nurr1 KD + MPP+, time 15 min
  Seahorse time trace (OCR): 15.57 and 7.6 and 4.41 and 7.39
[2]; Fig. S1k, Nurr1 KD + MPP+, time 21 min
  Seahorse time trace (OCR): 1.43 and 1.21
[2]; Fig. S1k, Nurr1 KD + MPP+, time 28 min
  Seahorse time trace (OCR): 13.44 and 8.97 and 1.24
[2]; Fig. S1k, Nurr1 KD + MPP+, time 34 min
  Seahorse time trace (OCR): 8.6
[2]; Control cells
  ATP turnover: 6.76 pmol/min/µg protein and 3.39 pmol/min/µg protein and 1.42 pmol/min/µg protein and 10.68 pmol/min/µg protein
[2]; Nurr1 KD cells
  ATP turnover: 7.63 pmol/min/µg protein and -1 pmol/min/µg protein and 4.86 pmol/min/µg protein and 9.17 pmol/min/µg protein
[2]; Nurr1 OE cells
  ATP turnover: 19.32 pmol/min/µg protein and 24.75 pmol/min/µg protein and 13.77 pmol/min/µg protein and 18.27 pmol/min/µg protein
[2]; Nurr1 KD N27-A cells
  OCR changes after FCCP injection: 12.59 pmol/min/µg protein and 4.43 pmol/min/µg protein and 9.84 pmol/min/µg protein and 17.76 pmol/min/µg protein
[2]; Nurr1 OE N27-A cells
  OCR changes after FCCP injection: 24 pmol/min/µg protein and 37.47 pmol/min/µg protein and 12.22 pmol/min/µg protein and 23.73 pmol/min/µg protein
[3]; Nurr1-LBD and full-length Nurr1, SK-N-BE(2)C cells, Fig. 1d,e
  EC50: 50 to 70 µM
[3]; Nurr1 activation, Supplementary Table 1, values in µM
  EC50: 50.2 µM
[4]; Figure 4m
  Iba-1+ cells in STR (% of control): 156.51 % of control and 147.74 % of control and 143.13 % of control and 144.76 % of control and 151.54 % of control and 162.57 % of control and 147.11 % of control and 149.46 % of control
[4]; Figure 4n
  Iba-1+ cells in SNpc (% of control): 165.17 % of control and 275.28 % of control and 277.25 % of control and 239.89 % of control and 248.74 % of control and 269.38 % of control and 278.23 % of control
[5]; Figure 3d, individual replicates
  Lysosomal pH: 4.937 and 5.068 and 5.133 and 5.85 and 5.426 and 5.296 and 5.622 and 4.4486 and 5.263 and 4.481 and 5.947
[5]; N27-A, BafA1 10 nM, CQ 20 µM, 4A7C-301 1 µM
  lysosomal pH (in words): significantly increased
